Measured values taken from ChEMBL document CHEMBL3046841, “The synthesis and screening of the antimicrobial activity of some novel 3-(furan-2-yl)-1-(aryl)-3-(phenylthio) propan-1-one derivatives” (2011).
In brackets after ≈: the same amount, converted by molar mass.

Key:
Type in all cases: functional
[1] = test system: Bacillus cereus; assay: Antimicrobial activity against Bacillus cereus DSM 4312 after 24 hr by serial microdilution method; details: DSM 4312, 24 h
[2] = test system: Cyberlindnera jadinii; assay: Antimicrobial activity against Cyberlindnera jadinii KUEN 1031 at 105 ug/disc after 48 hr by disk diffusion method; details: Williopsis jadinii, KUEN 1031, 48 h; read-out: IZ
[3] = test system: Salmonella enteritidis; assay: Antimicrobial activity against Salmonella enterica subsp. enterica serovar Enteritidis ATCC 13076 at 105 ug/disk after 24 hr by disk diffusion method; details: ATCC 13076, 24 h, read-out: IZ
[4] = test system: Candida albicans; assay: Antimicrobial activity against Candida albicans ATCC 1213 by serial microdilution method
[5] = test system: Streptococcus pyogenes; assay: Antimicrobial activity against Streptococcus pyogenes ATCC 176 after 24 hr by serial microdilution method; details: ATCC 176, 24 h
[6] = test system: Salmonella enteritidis; assay: Antimicrobial activity against Salmonella enterica subsp. enterica serovar Enteritidis ATCC 13076 after 24 hr by serial microdilution method; details: ATCC 13076, 24 h
[7] = test system: Proteus vulgaris; assay: Antimicrobial activity against Proteus vulgaris KUEN 1329 at 105 ug/disk after 24 hr by disk diffusion method; details: KUEN 1329, 24 h, read-out: IZ
[8] = test system: Pseudomonas aeruginosa; assay: Antimicrobial activity against Pseudomonas aeruginosa ATCC 9027 after 24 hr by serial microdilution method; details: ATCC 9027, 24 h
[9] = test system: Proteus vulgaris; assay: Antimicrobial activity against Proteus vulgaris KUEN 1329 after 24 hr by serial microdilution method; details: KUEN 1329, 24 h
[10] = test system: Cyberlindnera jadinii; assay: Antimicrobial activity against Cyberlindnera jadinii KUEN 1031 serial microdilution method; details: Williopsis jadinii
[11] = test system: Escherichia coli; assay: Antimicrobial activity against Escherichia coli 111 after 24 hr by serial microdilution method; details: Escherichia coli, 111, 24 h
[12] = test system: Escherichia coli; assay: Antimicrobial activity against Escherichia coli 111 at 105 ug/disk after 24 hr by disk diffusion method; details: Escherichia coli, 111, 24 h; read-out: IZ
[13] = test system: Bacillus subtilis; assay: Antimicrobial activity against Bacillus subtilis ATCC 6633 after 24 hr by serial microdilution method; details: ATCC 6633, 24 h
[14] = test system: Bacillus subtilis; assay: Antimicrobial activity against Bacillus subtilis ATCC 6633 at 105 ug/disk after 24 hr by disk diffusion method; details: ATCC 6633, 24 h, read-out: IZ
[15] = test system: Staphylococcus aureus; assay: Antimicrobial activity against Staphylococcus aureus ATCC 29213 after 24 hr by serial microdilution method; details: ATCC 29213, 24 h
[16] = test system: Pseudomonas aeruginosa; assay: Antimicrobial activity against Pseudomonas aeruginosa ATCC 27859 after 24 hr by serial microdilution method; details: ATCC 27859, 24 h
[17] = test system: Candida albicans; assay: Antimicrobial activity against Candida albicans ATCC 1213 at 105 ug/disk after 48 hr by disk diffusion method; details: ATCC 1213, 48 h, read-out: IZ
[18] = test system: Streptococcus pyogenes; assay: Antimicrobial activity against Streptococcus pyogenes ATCC 176 at 105 ug/disc after 24 hr by disc diffusion method; details: ATCC 176, 24 h, read-out: IZ
[19] = test system: Pseudomonas aeruginosa; assay: Antimicrobial activity against Pseudomonas aeruginosa ATCC 9027 at 105 ug/disk after 24 hr by disk diffusion method; details: ATCC 9027, 24 h, read-out: IZ
[20] = test system: Bacillus cereus; assay: Antimicrobial activity against Bacillus cereus DSM 4312 at 105 ug/disk after 24 hr by disk diffusion method; details: DSM 4312, 24 h, read-out: IZ
[21] = test system: Pseudomonas aeruginosa; assay: Antimicrobial activity against Pseudomonas aeruginosa ATCC 27859 at 105 ug/disk after 24 hr by disk diffusion method; details: ATCC 27859, 24 h, read-out: IZ
[22] = test system: Staphylococcus aureus; assay: Antimicrobial activity against Staphylococcus aureus ATCC 29213 at 105 ug/disc after 24 hr by disk diffusion method; details: ATCC 29213, 24 h, read-out: IZ

Row | Compound | MIC [1] [µg/mL] | zone of inhibition at 105 µg/disc [2] [mm] | zone of inhibition at 105 µg/disc [3] [mm] | MIC [4] [µg/mL] | MIC [5] [µg/mL] | MIC [6] [µg/mL] | zone of inhibition at 105 µg/disc [7] [mm] | MIC [8] [µg/mL] | MIC [9] [µg/mL] | MIC [10] [µg/mL] | MIC [11] [µg/mL] | zone of inhibition at 105 µg/disc [12] [mm] | MIC [13] [µg/mL] | MIC [15] [µg/mL] | MIC [16] [µg/mL] | zone of inhibition at 105 µg/disc [17] [mm] | zone of inhibition at 105 µg/disc [19] [mm] | zone of inhibition at 105 µg/disc [20] [mm] | also measured
1 | COc1cccc(C(=O)CC(Sc2ccccc2)c2ccco2)c1 (stereo unspecified) | 62.5 (≈ 185 µM) | 13 | 17 | 15.6 (≈ 46.2 µM) | 7.81 (≈ 23.1 µM) | 62.5 (≈ 185 µM) | 14 | > 125 | 31.2 (≈ 92.3 µM) | 15.6 (≈ 46.2 µM) | 31.2 (≈ 92.3 µM) | 14 | 62.5 (≈ 185 µM) | > 125 | 125 (≈ 369 µM) | 17 | – | – | zone of inhibition at 105 µg/disc [14]: 12 mm
2 | COc1ccc(C(=O)CC(Sc2ccccc2)c2ccco2)cc1 (stereo unspecified) | 62.5 (≈ 185 µM) | 12 | – | > 125 | > 125 | > 125 | – | 62.5 (≈ 185 µM) | 62.5 (≈ 185 µM) | 125 (≈ 369 µM) | 62.5 (≈ 185 µM) | 10 | 125 (≈ 369 µM) | > 125 | 62.5 (≈ 185 µM) | 12 | 13 | – | zone of inhibition at 105 µg/disc [18]: 13 mm
3 | O=C(CC(Sc1ccccc1)c1ccco1)c1ccccc1Cl (stereo unspecified) | 31.2 (≈ 91.1 µM) | 13 | 18 | 15.6 (≈ 45.6 µM) | 15.6 (≈ 45.6 µM) | 15.6 (≈ 45.6 µM) | 16 | 31.2 (≈ 91.1 µM) | 31.2 (≈ 91.1 µM) | 125 (≈ 365 µM) | > 125 | – | 31.2 (≈ 91.1 µM) | 7.81 (≈ 22.8 µM) | 125 (≈ 365 µM) | 16 | 14 | 11 | zone of inhibition at 105 µg/disc [21]: 14 mm; zone of inhibition at 105 µg/disc [14]: 15 mm; zone of inhibition at 105 µg/disc [22]: 18 mm
4 | O=C(CC(Sc1ccccc1)c1ccco1)c1ccc(Cl)cc1 (stereo unspecified) | 31.2 (≈ 91.1 µM) | 14 | 17 | 62.5 (≈ 182 µM) | 125 (≈ 365 µM) | 62.5 (≈ 182 µM) | 14 | > 125 | 7.81 (≈ 22.8 µM) | 62.5 (≈ 182 µM) | 62.5 (≈ 182 µM) | 10 | > 125 | > 125 | > 125 | 14 | 15 | 10 | zone of inhibition at 105 µg/disc [18]: 13 mm
5 | O=C(CC(Sc1ccccc1)c1ccco1)c1cccc(Br)c1 (stereo unspecified) | 31.2 (≈ 80.7 µM) | 14 | 16 | > 125 | 31.2 (≈ 80.7 µM) | 31.2 (≈ 80.7 µM) | 15 | 15.6 (≈ 40.3 µM) | 31.2 (≈ 80.7 µM) | > 125 | > 125 | – | 31.2 (≈ 80.7 µM) | 15.6 (≈ 40.3 µM) | > 125 | 16 | 16 | 13 | zone of inhibition at 105 µg/disc [22]: 16 mm
6 | O=C(CC(Sc1ccccc1)c1ccco1)c1ccc(Br)cc1 (stereo unspecified) | 62.5 (≈ 161 µM) | 13 | 17 | 15.6 (≈ 40.3 µM) | 7.81 (≈ 20.2 µM) | 62.5 (≈ 161 µM) | 15 | 31.2 (≈ 80.7 µM) | 15.6 (≈ 40.3 µM) | 125 (≈ 323 µM) | > 125 | – | 31.2 (≈ 80.7 µM) | > 125 | 31.2 (≈ 80.7 µM) | 11 | 15 | – | –
7 | O=C(CC(Sc1ccccc1)c1ccco1)c1ccc(O)cc1 (stereo unspecified) | 31.2 (≈ 96.3 µM) | 13 | 17 | 15.6 (≈ 48.2 µM) | 7.81 (≈ 24.1 µM) | 62.5 (≈ 193 µM) | 17 | 62.5 (≈ 193 µM) | 7.81 (≈ 24.1 µM) | 62.5 (≈ 193 µM) | 62.5 (≈ 193 µM) | 10 | 31.2 (≈ 96.3 µM) | 31.2 (≈ 96.3 µM) | 62.5 (≈ 193 µM) | 20 | 14 | – | –
8 | CC1(C)S[C@@H]2[C@H](NC(=O)[C@H](N)c3ccccc3)C(=O)N2[C@H]1C(=O)O [AMPICILLIN] | > 125 | – | – | > 125 | 3.9 (≈ 11.2 µM) | > 125 | – | 7.81 (≈ 22.4 µM) | 15.6 (≈ 44.7 µM) | 7.81 (≈ 22.4 µM) | > 125 | – | > 125 | > 125 | > 125 | – | – | – | –
9 | CO/N=C(\C(=O)N[C@@H]1C(=O)N2C(C(=O)O)=C(CSc3nc(=O)c(O)nn3C)CS[C@H]12)c1csc(N)n1 [CEFTRIAXONE] | > 125 | – | – | > 125 | 3.9 (≈ 7.03 µM) | 125 (≈ 225 µM) | – | 15.6 (≈ 28.2 µM) | 15.6 (≈ 28.2 µM) | 15.6 (≈ 28.2 µM) | > 125 | – | 3.9 (≈ 7.03 µM) | > 125 | > 125 | – | – | – | –
10 | CN(C)[C@@H]1C(O)=C(C(N)=O)C(=O)[C@@]2(O)C(O)=C3C(=O)c4c(O)cccc4[C@@](C)(O)[C@H]3C[C@@H]12 [TETRACYCLINE] | 62.5 (≈ 141 µM) | – | – | 125 (≈ 281 µM) | 3.9 (≈ 8.78 µM) | 7.81 (≈ 17.6 µM) | – | 3.9 (≈ 8.78 µM) | 3.9 (≈ 8.78 µM) | 15.6 (≈ 35.1 µM) | 125 (≈ 281 µM) | – | 15.6 (≈ 35.1 µM) | 125 (≈ 281 µM) | > 125 | – | – | – | –
